Read-outs that look alike come from different tables or passages of the source. Where only a bound is given, the exact number is not on record here.

The values that follow come from paper PMC10799935, “Discovery of a peripheral 5HT2A antagonist as a clinical candidate for metabolic dysfunction-associated steatohepatitis” (Nature Communications, 2024).

The target of one series is T1, 5HT1B (h) (Homo sapiens, UniProt P28222).
T1 construct: host or cells: Hela cells
In words: 5HT subtype antagonism assay (Eurofins Cerep): 5HT1B. The class given is cell-based. As to conditions: concentration not given. As for the experimental part:
(§1) The derivatives were evaluated at a concentration of 1 μM for their antagonist activity on the 5HT2A receptor (Tables 1–3)[33],[34]. Human 5HT2A stably transfected HEK293 cells (a type of cell derived from kidney embryos)[20] were seeded in a 96-well plate (Costar; 3603) at a density of 9 × 10^4 in 100 μL of minimum essential medium (Welgene; LM007-86) containing 10% dialyzed fetal bovine serum (Gibco; 30067–334) and 1% penicillin/streptomycin (Gibco; 15140-122) and kept in a 37 °C incubator for 24 h. The cells were stained with 100 μL of cytosolic calcium dye using the FLIPR calcium 6 assay solution (Molecular devices, #R8190) supplemented with 2.5 mM probenecid (Sigma; P8761) and incubated for 1 h at 37 °C. After 1 h, the designated amount of the compound was treated in each well and incubated for another 1 h at 37 °C. Then, the cells were loaded in a Flexstation 3 microplate reader (Molecular Devices; FlexStaion) and 50 μL of 5 μM 5HT (serotonin hydrochloride, Sigma; H9523) was injected from a source plate (Nunc 96-well polystyrene conical bottom MicroWell Plate, Thermo; 249662) and the fluorescence intensity (Ex/Em-485nm/ 525 nm) was measured. […]
(§2) Antagonism assay Source Stimulus Incubation Measured Detection Method […]

In a further series the target is T2, 5HT1D (Rattus norvegicus, UniProt P28565).
T2 construct: host or cells: CHO cells
In words: 5HT subtype antagonism assay (Eurofins Cerep): 5HT1D. As to conditions: concentration not given. The class given is cell-based. The procedure:
as §1, §2

The target in a further series is 5HT2C (h) (Homo sapiens, UniProt P28335). In words: 5HT subtype antagonism assay (Eurofins Cerep): 5HT2C. It is filed as cell-based.
Series [1] can be described thus: Hepatocyte stability test, monkey. The class given is in vitro ADME, cynomolgus monkey. As to conditions: male, cryopreserved hepatocytes, pH 7.4, read-out: Hepatocyte stability (% remaining after 3 h). The procedure: Hepatocyte incubations for the test compound (10 μM final concentration, n = 2 per each time point) were carried out in mouse, rat, dog, monkey and human cryopreserved hepatocytes, resuspended at a density of 0.5 million cells/ml of modified Krebs-Henseleit buffer (KHB). The information regarding the hepatocytes used in the experiment is as follows: liverPool® 10-donor mixed gender human (BioIVT, Cat.No. X008001, lot EAV), male cynomolgus monkey (BioIVT, Cat.No. M00305, lot COJ), male Beagle dog (BioIVT, Cat.No. M00205, lot USY), male Sprague Dawley rat (BioIVT, Cat.No. M00005, lot TQE) and male CD1 mouse (BioIVT, Cat.No.005052, lot LFF). In addition, the compound was also incubated with blank KHB. The final concentration of solvent (DMSO) was 0.1% of the final volume. The incubations were performed for 3 hours at 37°C and pH 7.4. Reactions were terminated at 0 and 180 minutes by the addition of 3 volumes of stop solution (acetonitrile/methanol (2:1, v/v) containing internal standard–diclofenac at 100 ng/ml). Samples (compound spiked buffer and compound spiked hepatocytes, as well as blank samples, i.e. hepatocytes with the same DMSO%) were then centrifuged and aliquots were transferred to 96-deep micronic tubes and frozen at -80 °C until LC-MS/MS analysis. […]

Series [2] in a line: Pharmacokinetic study in rats. The class given is in vivo, Sprague-Dawley rats. As to conditions: rat. The procedure:
The experimental protocol for this study was approved by the IACUC of KPC Co., Ltd. (No. KPC IACUC-P203046; Beagle dogs) or QuBEST BIO (No.QBIACUC-A20131). All relevant ethical guidelines were followed. Beagle male dogs (11 ~ 20 months old) were purchased from ORIENT BIO Inc. and were housed in the barrier animal facility of KPC Co., Ltd. under a regular light-dark cycle (12-hour light/12-hour dark) at 21.1–23.4°C with 55.3–72.2% humidity. Food (standard irradiated pelleted commercial laboratory diet, Cargill Agri Purina, 300 g/dog.day) and water were provided ad libitum. All study dogs were returned to the laboratory colony after the study without any euthanasia. Sprague-Dawley male rats (7 weeks old) were purchased from SAMTAKOBIOKOREA, Inc. and were housed in the barrier animal facility of Nonclinical Research Center, QuBEST BIO under a regular light-dark cycle (12-hour light/12-hour dark) at 19.7–22.7°C with 54.5–65.6% humidity. Food (standard irradiated pelleted commercial laboratory diet, Purina Rodent Chow, 38057) and water were provided ad libitum. All study rats were euthanized by CO2 gas upon study completion.
Blood samples were collected at the scheduled times up to 24 h post-dose (IV: 0.083, 0.25, 0.5, 1, 2, 4, 8, 12 and 24 h post-dose, PO: 0.25, 0.5, 1, 2, 4, 8, 12 and 24 h post-dose). Determination of compound 11c in plasma was performed by UHPLC-MS/MS. Pharmacokinetic parameters were calculated by noncompartmental analysis using Phoenix® WinNonlin® (Ver. 8.3‘, Certara).

Another series is described as follows: in vitro. As to conditions: mouse.
The mark [3] stands for this setting: male, Sprague-Dawley, plasma, 5 mg/kg, IV (5 mpk).

Sequence of 5HT2C (h) (P28335 33-458): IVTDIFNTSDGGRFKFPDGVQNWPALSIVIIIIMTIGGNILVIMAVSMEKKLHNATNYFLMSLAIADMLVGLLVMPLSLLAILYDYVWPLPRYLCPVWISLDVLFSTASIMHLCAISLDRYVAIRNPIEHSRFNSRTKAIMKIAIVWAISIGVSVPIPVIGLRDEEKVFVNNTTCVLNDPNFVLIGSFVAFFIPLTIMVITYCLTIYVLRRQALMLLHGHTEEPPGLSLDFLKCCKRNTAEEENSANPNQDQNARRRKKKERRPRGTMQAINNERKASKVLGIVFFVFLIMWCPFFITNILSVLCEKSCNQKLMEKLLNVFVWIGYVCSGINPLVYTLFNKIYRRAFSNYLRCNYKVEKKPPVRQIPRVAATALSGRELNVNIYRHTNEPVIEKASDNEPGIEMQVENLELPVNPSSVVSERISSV
T2 sequence (P28565 whole entry): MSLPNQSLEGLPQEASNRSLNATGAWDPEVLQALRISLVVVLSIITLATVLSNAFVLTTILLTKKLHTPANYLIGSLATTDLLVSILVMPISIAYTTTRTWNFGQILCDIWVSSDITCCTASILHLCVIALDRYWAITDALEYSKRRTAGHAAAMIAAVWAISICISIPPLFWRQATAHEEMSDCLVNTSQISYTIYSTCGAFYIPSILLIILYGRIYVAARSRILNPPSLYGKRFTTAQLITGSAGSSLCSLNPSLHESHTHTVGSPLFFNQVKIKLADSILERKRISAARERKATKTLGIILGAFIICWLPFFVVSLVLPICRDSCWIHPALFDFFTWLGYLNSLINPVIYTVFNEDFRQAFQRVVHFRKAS
T1 sequence (P28222 whole entry): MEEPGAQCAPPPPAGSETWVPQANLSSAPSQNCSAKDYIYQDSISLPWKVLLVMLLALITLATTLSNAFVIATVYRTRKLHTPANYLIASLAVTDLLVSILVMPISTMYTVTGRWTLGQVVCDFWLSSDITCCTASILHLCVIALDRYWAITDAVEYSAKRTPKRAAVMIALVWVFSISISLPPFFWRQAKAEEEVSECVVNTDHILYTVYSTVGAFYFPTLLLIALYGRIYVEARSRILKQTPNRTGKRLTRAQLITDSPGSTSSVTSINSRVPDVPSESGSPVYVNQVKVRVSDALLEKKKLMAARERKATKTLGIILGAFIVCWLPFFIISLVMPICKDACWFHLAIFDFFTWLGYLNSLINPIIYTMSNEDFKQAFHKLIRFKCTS

As usually defined, the IC50 is the midpoint of a concentration-inhibition curve. The amount remaining is what is left of the initial amount, in per cent. By AUC is commonly meant the area under the concentration-time curve, a measure of exposure. Usually clearance stands for the volume of plasma or blood freed of the substance per unit of time. What is called half-life is the time in which the quantity being followed falls by half. Consider `Cc1nc2n(c(=O)c1CCN1CCC(=C3c4ccc(Cl)cc4CCc4cccnc43)CC1)CCCC2O` (stereo not drawn) [Compound 11c], for which the “Selectivity 1B: % inhibition” value on 5HT1B (h) is 16%. In addition, the “Selectivity 1D: % inhibition” value at 5HT1D amounted to 3%. For the same molecule, the “Selectivity 2 C: % inhibition” value on 5HT2C (h) (concentration not given) amounted to 103%. Moreover, the values for the IC50 on 5HT2C (h) (read-out: Selectivity 2 C: IC50) and in the series “in vitro” were 170 nM and over 100000 nM, respectively. Moreover, the fraction remaining at 3 h, 10 μM in series [1] was 84.6%. Also, the AUC in series [2] (setting [3]) was 1550 ng·h/mL; in series [2] (male, Sprague-Dawley, plasma, 5 mg/kg, PO (5 mpk)) it was 980 ng·h/mL; in series [2] (male, Sprague-Dawley, plasma, 10 mg/kg, PO (10 mpk)), 2880 ng·h/mL. Moreover, in series [2] (setting [3]), the clearance is 47 mL/min/kg. The bioavailability was 63% in series [2] (male, Sprague-Dawley, plasma, 5 mg/kg, PO (5 mpk), read-out: F (%)); 92.5% in series [2] (male, Sprague-Dawley, plasma, 10 mg/kg, PO (10 mpk), read-out: F (%)); over 60% in series [2] (male, Sprague-Dawley, plasma, po, rats (summary statement), read-out: oral bioavailability). In addition, the half-life was 4.14 h in series [2] (male, Sprague-Dawley, plasma, iv, 5 mg/kg, IV (5 mpk)); 2.5 h in series [2] (male, Sprague-Dawley, plasma, po, 5 mg/kg, PO (5 mpk)); 2.7 h in series [2] (male, Sprague-Dawley, plasma, po, 10 mg/kg, PO (10 mpk)). Moreover, the “V” value in series [2] (IV (5 mpk)) is listed as 8.86 L/kg. Also, the “T1/2” value in series [2] (IV (5 mpk), 5 mg/kg) is 4.4 h.
